The subject of assay [1] is HCC-1806 cells. Nature of the assay: Viability of siRNA-transfected HCC-1806 cells, CellTiter-Glo. The class given is cell-based, human. Particulars: 48 h. As to the method:
FIG. 3H is a graph showing cell viability of HCC-1806 cells transfected with a control or CHOP siRNA after treatment with a 5-nitrofuran-2-amide derivative or DMSO. Control or CHOP siRNA (20 nM) was transfected into HCC-1806 cells, and 6 h later, cells were treated with compound 3d (5 μM) or DMSO for 48 h. Cell viability was measured using the CellTiter-Glo assay. The data shown are representative of 3 independent studies. *P<0.05 by Student's t-test compared with DMSO-treated cells.
To confirm that CHOP induction plays a role in compound 3d-mediated TNBC cell death, the inventor asked whether siRNA-mediated knockdown of CHOP mitigated compound 3d-induced cell death. For this, HCC-1806 cells were transfected with different concentrations of CHOP siRNA, and knockdown efficiency was assessed by RT-PCR.
HCC-1806 cells incubated with serum-free RPMI 1640 medium (Corning) were transfected with scrambled control or CHOP siRNA (E-004819-00; Dharmacon/Thermo Scientific, IL, US) using LipofectAMINE reagent (Invitrogen). After 6 h, the medium was replaced with RPMI 1640 medium supplemented with 10% FBS and compound 3d was added. After 48 h, the medium was aspirated and 60 μL/well of CellTiter-Glo reagent was added in 96-w format. Cell viability was measured with an EnVision multilabel plate reader.
For orientation: In ATP-based viability assays light output follows the ATP content of the culture.

Assay [2] concerns UPRE-Luciferase (UPRE-Luc) reporter. Nature of the assay: UPRE-Luc reporter assay in HEK293 cells. The class given is cell-based, human. Particulars: 3d 10 μM or Tm 1 μg/mL, 24 h. On the procedure:
FIG. 3G is a graph showing HEK293 cells stably expressing CHOP-Luc, ERSE-Luc, or UPRE-luc reporters were treated with DMSO, a 5-nitrofuran-2-amide derivative, or tunicamycin. HEK293 cells stably expressing CHOP-Luc, ERSE-Luc, or UPRE-luc reporters were treated with DMSO, compound 3d (10 μM), or Tm (1 μg/mL) for 24 h, and luciferase activity was measured using the Bright-Glo assay. Results are the means of 4 replicate wells and are representative of 3 independent experiments.
The inventor next asked whether the IRE1α and ATF6 branches of the unfolded protein response were also activated by compound 3d treatment of TNBC cells. […] XBP1 mRNA splicing, as measured by XBP1s levels, increased only slightly in the first 24 h after compound 3d treatment of HCC-1806 cells (from 11% of total XBP1 at 0 h to 15˜20% at 2˜24 h). […] Next, it was determined whether compound 3d activates the ATF6 pathway by evaluating its effect on the activity of an ER stress response elements (ERSE)-Luc reporter stably established in HEK293 cell line.
The HEK293T CHOP reporter cell line (CHOP-Luc) was previously described.^21 HEK293T cells were stably transfected with ERSE-Luciferase^25 and UPRE-Luciferase^23 reporters to generate ERSE-Luc and UPRE-Luc reporter cell lines, respectively. […] Luciferase activity was measured with a Bright-Glo kit 24 h later.

Assay [3] deals with HCC-1806 cells. Nature of the assay: Cell viability, CellTiter-Glo, HCC-1806. The class given is cell-based. Particulars: Homo sapiens, HCC1806, 72 h; Table 2; cancer cell viability, 3 d treatment; read-out: HCC-1806 IC50. On the procedure:
Given the known functions of CHOP in ER stress-induced apoptosis^16, 17 and in regulating cancer cell death,^6, 19, 20 the inventor investigated whether compound 1 affects the viability of TNBC cells. Three human TNBC cell lines, HCC-1806, HCC-1143, and HCC-38, were treated with doses of 1 ranging from 0.125 μM to 20 μM and their viability was assessed using the CellTiter-Glo assay, which measures intracellular ATP levels.
HCC-1806, HCC-1143, or HCC-38 cells were seeded at 3×10^3 cells/well in a 384-well plate and treated with compounds at the indicated concentrations. After 3 d treatment, the medium was aspirated and 20 μL/well of CellTiter-Glo reagent was added. Cell viability was measured with an EnVision multilabel plate reader. The IC50 value for cell viability of each compound was calculated with GraphPad Prism (La Jolla, Calif., US).

The subject of the next assay is CHOP protein. The experiment in a line: CHOP protein by Western blotting in HCC-1806 cells. Type of assay: cell-based, human. Particulars: 10 μM, significant increases between 4 h and 24 h. As to the method:
FIG. 3B is an image showing CHOP […] expression levels after treatment with a 5-nitrofuran-2-amide derivative. Cells were treated with compound 3d (10 μM) for the indicated times, and CHOP protein levels were analyzed by Western blotting. α-Tubulin was used as a loading control. The data shown are representative of 3 independent studies.
HCC-1806 cells were seeded in 60-mm dishes at 8×10^5 cells/dish and treated for the indicated times. Cells were then washed with PBS and lysed with lysis buffer (Cell Signaling Technology, Danvers, Mass., US) containing EDTA and phosphatase inhibitors. Aliquots of 20 μg total protein were separated on 7% SDS-PAGE gels (Life Technologies, Carlsbad, Calif., US) and transferred to PVDF membranes. The membranes were probed with primary antibodies followed by the appropriate HRP-conjugated secondary antibodies (goat anti-rabbit IgG and goat anti-mouse IgG, 1:3000; Santa Cruz Biotechnology, Santa Cruz, Calif., US). Blots were then developed. The primary antibodies and dilutions used were: CHOP (1:1000 no. MA1-250; Thermo, IL, US), cleaved caspase 3 (1:1000 no. 9661; Cell Signaling Technology), ATF4 (1:1000 no. 10835-1-AP; ProteinTech Group, IL, US), p-eIF2α (Ser51) (1:1000 no. 9721; Cell Signaling Technology), and α-tubulin (1:2000 no. SC-8035; Santa Cruz Biotechnology).

This note sets out measurements from patent US20180360799A1, “Nitrofuran Derivatives That Induce Apoptosis in Breast Cancer Cells by Activating Protein Expression” (Oklahoma Medical Research Foundation, priority 2015, published 2018).

For orientation: IC50 means the midpoint of a concentration-inhibition curve. As to `CC1CCN(c2ccc(NC(=O)c3ccc([N+](=O)[O-])o3)cc2)CC1` [Compound 3d], the “viability of cells transfected with control siRNA” value in the assay on HCC-1806 cells [1] (HCC-1806, 3d 5 μM) is “marked reduction in the viability”. Also, in the assay on HCC-1806 cells [1] (HCC-1806, CHOP siRNA 20 nM, 3d 5 μM), the “cell death in cells transfected with CHOP siRNA” value is reported as “significantly attenuated the effects of compound 3d”. Further, in assay [2], the “increase of UPRE-Luc luciferase activity” value was “less than 2 fold”. For the same compound, the IC50 in the assay with HCC-1806 cells [3] worked out at 2.8 µM. Also, the CHOP protein levels result in the assay with CHOP protein is on record as “increased CHOP protein levels”.
